In BindingDB's records for PubMed 10336510 (Virginia Commonwealth University, 1999):

Assays:
[1] = biological target: Sodium-dependent serotonin transporter (Rattus norvegicus, UniProt P31652)
[2] = biological target: Norepinephrine transporter (Rattus norvegicus, UniProt Q9JIA2)
[3] = biological target: Sodium-dependent dopamine transporter (Rattus norvegicus, UniProt P23977)
Sequence of Sodium-dependent dopamine transporter (P23977 whole entry): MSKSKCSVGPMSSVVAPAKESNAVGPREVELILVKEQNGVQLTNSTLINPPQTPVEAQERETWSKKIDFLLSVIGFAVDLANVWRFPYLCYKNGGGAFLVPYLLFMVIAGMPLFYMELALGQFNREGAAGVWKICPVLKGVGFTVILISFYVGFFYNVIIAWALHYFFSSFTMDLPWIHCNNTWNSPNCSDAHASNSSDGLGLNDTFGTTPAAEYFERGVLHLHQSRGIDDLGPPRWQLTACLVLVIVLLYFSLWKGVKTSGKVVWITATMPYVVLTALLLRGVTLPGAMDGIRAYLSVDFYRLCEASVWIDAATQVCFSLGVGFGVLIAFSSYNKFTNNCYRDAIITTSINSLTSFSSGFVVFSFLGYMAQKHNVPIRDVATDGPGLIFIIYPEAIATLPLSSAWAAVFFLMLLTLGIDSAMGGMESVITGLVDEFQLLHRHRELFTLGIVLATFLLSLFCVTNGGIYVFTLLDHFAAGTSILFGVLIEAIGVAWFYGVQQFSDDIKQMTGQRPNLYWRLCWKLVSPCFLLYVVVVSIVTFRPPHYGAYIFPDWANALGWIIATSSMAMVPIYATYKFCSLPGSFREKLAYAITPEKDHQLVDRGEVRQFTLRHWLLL

Sequence of Sodium-dependent serotonin transporter (P31652 whole entry): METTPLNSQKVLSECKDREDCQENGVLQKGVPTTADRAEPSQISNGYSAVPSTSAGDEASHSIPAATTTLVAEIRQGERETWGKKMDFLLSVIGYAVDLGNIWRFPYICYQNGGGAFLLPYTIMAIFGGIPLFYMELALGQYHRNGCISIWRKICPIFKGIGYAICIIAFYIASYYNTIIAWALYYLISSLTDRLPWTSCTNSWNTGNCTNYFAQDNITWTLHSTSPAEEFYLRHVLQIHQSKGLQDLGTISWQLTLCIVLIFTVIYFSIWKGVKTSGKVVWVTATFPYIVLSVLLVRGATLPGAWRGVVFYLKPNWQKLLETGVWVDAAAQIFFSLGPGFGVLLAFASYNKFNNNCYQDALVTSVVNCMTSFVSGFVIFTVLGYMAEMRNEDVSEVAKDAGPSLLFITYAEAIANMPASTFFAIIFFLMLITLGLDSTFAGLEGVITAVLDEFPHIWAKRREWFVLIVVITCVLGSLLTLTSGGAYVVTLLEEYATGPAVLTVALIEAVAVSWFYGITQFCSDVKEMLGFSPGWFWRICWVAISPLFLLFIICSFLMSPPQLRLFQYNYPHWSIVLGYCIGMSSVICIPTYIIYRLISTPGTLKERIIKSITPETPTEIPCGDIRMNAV

SMILES	Ki [1] [nM]	Ki [2] [nM]	Ki [3] [nM]
COC(=O)[C@H]1[C@@H](c2ccc(Cl)c(C)c2)C[C@@H]2CC[C@H]1N2C	10.5	36.2	0.8
CC(C)OC(=O)[C@@H]1C2CC[C@H](C[C@@H]1c1ccc(Cl)cc1)N2C	1400	778	1.4
COC(=O)[C@H]1[C@@H](c2ccc(Cl)cc2)C[C@@H]2CC[C@H]1N2C [RTI-31]	44.5		1.12
COC(=O)[C@H]1[C@@H](c2ccccc2)C[C@@H]2CC[C@H]1N2C [methyl (1R,2S,3S,5S)-8-methyl-3-phenyl-8-azabicyclo[3.2.1]octane-2-carboxylate]		920	23
CN1C2CC[C@@H]1C[C@H](c1ccc(Cl)cc1)C2C(=O)N1CCCC1 (stereo partly specified) [RTI-147]	> 10000	3950	1.38
COC(=O)[C@H]1[C@@H](c2ccc(Cl)cc2)C[C@@H]2CC[C@H]1N2 [RTI-110]	4.1	5.45	0.62
Cc1ccc([C@H]2C[C@@H]3CC[C@H]([C@H]2C(=O)Oc2ccccc2)N3C)cc1 [RTI-120]	> 10000	5830	3.26
CN1[C@H]2CC[C@@H]1[C@@H](C(=O)N1CCCC1)[C@@H](c1ccc(I)cc1)C2 [RTI-229]	1730	990	0.37
COC(=O)[C@@H]1C2CCC(C[C@@H]1c1ccc(Cl)c(Cl)c1)N2C (stereo partly drawn) [(2S,3S)-methyl 3-(3,4-dichlorophenyl)-8-methyl-8-aza-bicyclo[3.2.1]octane-2-carboxylate]	3.1	17.9	0.79
COC(=O)C1C2CC[C@H](C[C@@H]1c1ccc(C)cc1)N2C (stereo partly specified) [RTI-32]		60	1.7
CC(C)OC(=O)[C@@H]1C2CC[C@H](C[C@@H]1c1ccc(I)cc1)N2C	66.8	285	0.4
COC(=O)C1C2CC[C@H](C[C@@H]1c1ccc(N)cc1)N2C (stereo partly drawn) [(3S,8R)-3-(4-Amino-phenyl)-8-methyl-8-aza-bicyclo[3.2.1]octane-2-carboxylic acid methyl ester]	5110	151	9.8
COC(=O)[C@H]1[C@@H](c2ccc(Br)cc2)C[C@@H]2CC[C@H]1N2C [RTI-51]	10.6		1.69
CN1[C@H]2CC[C@@H]1[C@@H](C(=O)Oc1ccccc1)[C@@H](c1ccc(Cl)cc1)C2 [RTI-113]	2340	2930	1.98
CN1[C@H]2CC[C@@H]1[C@@H](C(=O)O)[C@@H](c1ccc(Cl)cc1)C2 [RIT-70]	> 10000	> 10000	2070
